Measurements published in patent US12220440B2, “Drug composition, method for treating infection, disinfecting composition, and drug adjuvant” (priority 2022, dated 2025).
Like-named read-outs stand apart in the source and are kept apart here.

How the values were obtained:
Format in all cases: cell-based
E. coli Bw25113 = experiment: MIC, colistin-susceptible E. coli, with and without otilonium bromide; settings: Escherichia coli, Ob alone, read-out: Ob MIC
mcr-1-bearing E. coli = experiment: LIVE/DEAD cell viability assay, fluorescence microscopy; settings: 20 μg/ml of otilonium bromide alone
Description: Fluorescence microscopy quantifies the number of live and dead cells and determines the degree of reduction in colistin concentration in the drug combination required for effective eradication of the test organism. […] However, in the presence of 20 μg/ml of otilonium bromide, 4 μg/ml of colistin eradicates >97% of the bacteria.

[1] = tested on: E. coli (colistin-resistant); experiment: MIC, colistin-resistant E. coli clinical isolates, with and without otilonium bromide; settings: Escherichia coli, Ob alone, read-out: Ob MIC
[2] = tested on: A. baumannii (colistin-resistant); experiment: MIC, colistin-resistant A. baumannii isolates, with and without otilonium bromide; settings: Acinetobacter baumannii
[3] = tested on: mcr-1-bearing E. coli J53; experiment: SYTOX Green membrane permeability staining
Text: SYTOX™ Green (available from ThermoFisher Scientific) staining analysis assesses the membrane permeability of colistin-resistant E. coli before and after treatment with the colistin and otilonium bromide combination. SYTOX Green is a green-fluorescent nucleotide dye used to test membrane permeability and membrane integrity. Green fluorescence is detected by fluorescence spectrometer when bacterial cell integrity is destroyed and membrane permeability increases.

S. Typhimurium PY01 = experiment: MIC, colistin-susceptible S. Typhimurium, with and without otilonium bromide; settings: Salmonella enterica, Ob alone, read-out: Ob MIC
[4] = tested on: P. aeruginosa (colistin-susceptible); experiment: MIC, colistin-susceptible P. aeruginosa isolates, with and without otilonium bromide; settings: Pseudomonas aeruginosa, Ob alone, read-out: Ob MIC
P. aeruginosa PAO1 = experiment: Bacterial motility on semisolid agar (migration distance)
Text: It is believed that flagellar formation and flagellar motor rotation are driven by PMF. To study the effect of otilonium bromide on bacterial motility, P. aeruginosa, whose motility on a semisolid surface is dependent upon a functional flagellum, is reviewed. […] Gramicidin, an ionophore known for acting as PMF dissipater, is the positive control. […] For the experiments in FIG. 6a, P. aeruginosa is inoculated in the center of the semisolid agar containing otilonium bromide at the indicated concentrations, with gramicidin as the positive control. A set of 10 mM CaCl2 and no CaC2 plates are also prepared as indicated.
The migration distance is measured in cm and recorded after the inoculated plates ae incubated. The error bars represent the means and standard deviations (SDs). Statistical analysis is performed using unpaired two-tailed student t-test. .*, p<0.05, **, p<0.005, ***p<0.0005, ****p<0.00005.

## CCCCCCCCOc1ccccc1C(=O)Nc1ccc(C(=O)OCC[N+](C)(CC)CC)cc1.[Br-] [Ob, Otilonium bromide]
E. coli Bw25113
  MIC: > 64 µg/mL
mcr-1-bearing E. coli
  live/dead state of cells: most or all mcr-1-bearing E. coli strains were alive
[1]; E. coli 5, colistin-resistant
  MIC: > 64 µg/mL
[1]; E. coli 12.12.0487, colistin-resistant
  MIC: > 64 µg/mL
[1]; E. coli 101, colistin-resistant
  MIC: > 64 µg/mL
[1]; E. coli 119, colistin-resistant
  MIC: > 64 µg/mL
[1]; E. coli 812, colistin-resistant
  MIC: > 64 µg/mL
[1]; E. coli 2016.2.5 1149-1, colistin-resistant
  MIC: > 64 µg/mL
[1]; E. coli 34650, colistin-resistant
  MIC: > 64 µg/mL
[1]; E. coli CX48, colistin-resistant
  MIC: > 64 µg/mL
[1]; E. coli CX53, colistin-resistant
  MIC: > 64 µg/mL
[1]; E. coli CX116, colistin-resistant
  MIC: > 64 µg/mL
[1]; E. coli WZ2431, colistin-resistant
  MIC: > 64 µg/mL
[1]; E. coli WZ2909, colistin-resistant
  MIC: > 64 µg/mL
[1]; E. coli WZ3903, colistin-resistant
  MIC: > 64 µg/mL
[1]; E. coli WZ3906, colistin-resistant
  MIC: > 64 µg/mL
[1]; E. coli WZ3920, colistin-resistant
  MIC: > 64 µg/mL
[1]; E. coli WZ3951, colistin-resistant
  MIC: > 64 µg/mL
[1]; E. coli WZ3955, colistin-resistant
  MIC: > 64 µg/mL
[1]; E. coli X2169, colistin-resistant
  MIC: > 64 µg/mL
[2]; ATCC17978, read-out: Ob MIC
  MIC: 20 µg/mL
[2]; read-out: Ob MIC, A. baumannii ABJZ-45, colistin-resistant, Ob alone
  MIC: 20 µg/mL
[2]; read-out: Ob MIC, A. baumannii ABJZ-46, colistin-resistant, Ob alone
  MIC: 20 µg/mL
[2]; read-out: Ob MIC, A. baumannii ABJZ-50, colistin-resistant, Ob alone
  MIC: 20 µg/mL
[3]; each drug individually
  SYTOX Green fluorescence (membrane permeability): significant increase in fluorescence
[3]; otilonium bromide by itself
  ability to enhance membrane permeability, compared with colistin: significantly lower than colistin
S. Typhimurium PY01
  MIC: > 64 µg/mL
[4]; P. aeruginosa PA01, colistin-susceptible
  MIC: > 64 µg/mL
[4]; P. aeruginosa PAER 2011-3010, colistin-susceptible
  MIC: > 64 µg/mL
[4]; P. aeruginosa PAER 2011-3252, colistin-susceptible
  MIC: > 64 µg/mL
[4]; P. aeruginosa PAER 2012-1527, colistin-susceptible
  MIC: > 64 µg/mL
[4]; P. aeruginosa PAERC 10.296, colistin-susceptible
  MIC: > 64 µg/mL
[4]; P. aeruginosa PAERC 11.2309, colistin-susceptible
  MIC: > 64 µg/mL
[4]; P. aeruginosa PAERC 11.236, colistin-susceptible
  MIC: > 64 µg/mL
[4]; P. aeruginosa PAERC 11.603, colistin-susceptible
  MIC: > 64 µg/mL
[4]; P. aeruginosa PAERC 12.1478, colistin-susceptible
  MIC: > 64 µg/mL
P. aeruginosa PAO1; 40 μM otilonium bromide supplemented with 10 mM calcium ions
  migration distance on semisolid agar: significant increase in migration distance
P. aeruginosa PAO1; plates containing otilonium bromide, overnight incubation
  migration distance on semisolid agar: decrease in a dose-dependent manner
